Test results as given in patent US12077483B2, “Modified amine lipids” (Intellia Therapeutics, Inc., priority 2018, dated 2024).
Values joined by “and” are separate entries in the source; they are usually repeats but may differ in a detail not shown here. Identical values can stand only once. Blank lines part the entries; values can stand above or below the compound they belong to.

Assays:
mouse TTR = assay: Serum TTR ELISA in mice after LNP delivery; assay type: in vivo
Outline: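 Female CD-1 mice received LNP at 0.1 mpk unless noted; serum was collected 6 or 7 days later. Total serum TTR was measured by mouse prealbumin ELISA at 10,000- and/or 2,500-fold dilution and is expressed as a percentage of vehicle control.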

[1] = LNP average particle size and polydispersity by dynamic light scattering; assay type: physicochemical
Outline: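 LNPs were diluted in PBS to a count rate of about 200-400 kcps and measured by DLS on a Zetasizer. Size is the intensity-weighted Z-average diameter, reported with number-average diameter, and the polydispersity index describes the spread of sizes around the mean.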

[2] = RNA encapsulation efficiency of LNP (Ribogreen fluorescence assay); assay type: physicochemical; details: for % E: Table 13, LNP sgRNA:Cas9 mRNA 1:2 w/w
Outline: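 LNP samples diluted in 1× TE with or without 0.2% Triton-X 100 for total or free RNA, stained ~10 min at room temperature in the dark with RiboGreen; fluorescence ex 488/em 525 nm against RNA standard curves. Encapsulation efficiency = (Total RNA−Free RNA)/Total RNA.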

[3] = pKa of amine lipid by TNS fluorescence; assay type: physicochemical; details: probe TNS (6-(p-toluidino)-2-naphthalenesulfonic acid sodium salt), unformulated amine lipid in ethanol, sodium phosphate buffers -9.0
Outline: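 Unformulated amine lipid, about 100 μM final, in 0.1 M sodium phosphate buffers spanning pH 4.5–9.0 with TNS. Fluorescence read at ex 321/em 448 nm; normalized data fitted sigmoidally to give pKa.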

[4] = mouse serum, relative to TSS control of same experiment, dose 0.1 mpk
[5] = LNP with the compound as amine lipid, Expt. 3, composition ratio (mol %) 50/9/38/3 for Cmpnd 49, 50/10/38.5/1.5 for the others
[6] = LNP with the compound as amine lipid, Expt. 10, composition ratio (mol %) 50/9/38/3 for Cmpnd 49, 50/10/38.5/1.5 for the others
[7] = Table 13, LNP sgRNA:Cas9 mRNA 1:2 w/w, N/P 6.0
[8] = Table 3, guide G282, CD-1 female mice, 0.1 mpk i.v., Exp. 1, 8, 9, 10
[9] = Table 3, guide G282, CD-1 female mice, 0.1 mpk i.v., percentage of vehicle control (TSS)
[10] = mouse serum, relative to TSS control of same experiment, dose 0.03 mpk
[11] = LNP with the compound as amine lipid, Expt. 4, composition ratio (mol %) 50/9/38/3 for Cmpnd 49, 50/10/38.5/1.5 for the others
[12] = LNP with the compound as amine lipid, Expt. 8, composition ratio (mol %) 50/9/38/3 for Cmpnd 49, 50/10/38.5/1.5 for the others
[13] = Table 4, LNP with G00282 sgRNA:Cas9 mRNA 1:1 w/w, N/P 6.0
[14] = LNP with the compound as amine lipid, Expt. 1, composition ratio (mol %) 50/9/38/3 for Cmpnd 49, 50/10/38.5/1.5 for the others
[15] = Table 7, G00282, CD-1 female mice i.v., dose 0.1 mpk
[16] = Table 7, G00282, CD-1 female mice i.v., dose 0.1 mpk, percentage of vehicle control
[17] = Table 7, G00282, CD-1 female mice i.v., dose 0.3 mpk
[18] = Table 7, G00282, CD-1 female mice i.v., dose 0.3 mpk, percentage of vehicle control
[19] = Table 6, LNP with G00282 sgRNA:Cas9 mRNA 1:1 w/w
[20] = LNP with the compound as amine lipid, Expt. 2, composition ratio (mol %) 50/9/39.5/3 for Cmpnd 49, 50/9/39.5/1.5 for the others
[21] = LNP with the compound as amine lipid, Expt. 5, composition ratio (mol %) 50/10/38.5/1.5
[22] = LNP with the compound as amine lipid, Expt. 6, composition ratio (mol %) 50/9/38/3 for Cmpnd 49, 50/10/38.5/1.5 for the others
[23] = LNP with the compound as amine lipid, Expt. 7, composition ratio (mol %) 50/9/38/3 for Cmpnd 49, 50/10/38.5/1.5 for the others
[24] = LNP with the compound as amine lipid, Expt. 9, composition ratio (mol %) 50/9/38/3 for Cmpnd 49, 50/10/38.5/1.5 for the others
[25] = Table 10, LNP with G00534 sgRNA:Cas9 mRNA 1:2 w/w

Num Ave Size (nm) [1, 5]: 80.57 nm
PDI [1, 5]: 0.02
Z-Ave Size (nm) [1, 5]: 96.78 nm
Num Ave Size (nm) [1, 6]: 82 nm
PDI [1, 6]: 0.02
Z-Ave Size (nm) [1, 6]: 98 nm
Number Average [nm] [1, 7]: 80 nm
PDI [1, 7]: 0.009
Z-Ave Size (nm) [1, 7]: 97.21 nm
Encapsulation (%) [2, 5]: 98%
Encapsulation (%) [2, 6]: 98%
% E ([2]; N/P 6.0): 98%
pKa [3]: 6.37
Compound: CCCCC/C=C\C/C=C\CCCCCCCC(=O)OCC(COC(=O)CCCCCCC/C=C\C/C=C\CCCCC)OC(=O)CCC(CCCCCCCC)OC(=O)NCCN1CCCC1 (centres unmarked) [Compound 51, 2-((4-(((2-(pyrrolidin-1-yl)ethyl)carbamoyl)oxy)dodecanoyl)oxy)propane-1,3-diyl (9Z,9′Z,12Z,12′Z)-bis(octadeca-9,12-dienoate)]
Serum TTR % TSS (mouse TTR; [4]): 9.32 % TSS

Num Ave Size (nm) [1, 11]: 81.51 nm
PDI [1, 11]: 0.027
Z-Ave Size (nm) [1, 11]: 101.10 nm
Encapsulation (%) [2, 11]: 97%
pKa [3]: 6.34
Compound: CCCCC/C=C\C/C=C\CCCCCCCC(=O)OCC(COC(=O)CCCCCCC/C=C\C/C=C\CCCCC)OC(=O)CCC(CCCCCC)OC(=O)NCCN(C)CC (centres unmarked) [Compound 40, 2-((4-(((2-(ethyl(methyl)amino)ethyl)carbamoyl)oxy)decanoyl)oxy)propane-1,3-diyl (9Z,9′Z,12Z,12′Z)-bis(octadeca-9,12-dienoate)]
Serum TTR (mouse TTR; [8]): 251 µg/mL
Serum TTR % TSS (mouse TTR; [9]): 31% TSS
Serum TTR % TSS (mouse TTR; [10]): 77% TSS
Serum TTR % TSS (mouse TTR; [4]): 9% TSS

Num Ave Size (nm) [1, 12]: 62.82 nm
PDI [1, 12]: 0.068
Z-Ave Size (nm) [1, 12]: 81.51 nm
Encapsulation (%) [2, 12]: 99%
pKa [3]: 6.35
Compound: CCCCC/C=C\C/C=C\CCCCCCCC(=O)OCC(COC(=O)CCCCCCC/C=C\C/C=C\CCCCC)OC(=O)CCC(CCCCCCCC)OC(=O)NCC1CCCN1C (centres unmarked) [Compound 35, 2-((4-((((1-methylpyrrolidin-2-yl)methyl)carbamoyl)oxy)dodecanoyl)oxy) propane-1,3-diyl (9Z,9′Z,12Z,12′Z)-bis(octadeca-9,12-dienoate)]
Serum TTR % TSS (mouse TTR; [10]): 104.30 % TSS
Serum TTR % TSS (mouse TTR; [4]): 99.13 % TSS

Num Ave Size (nm) [1, 11]: 73.07 nm
PDI [1, 11]: 0.002
Z-Ave Size (nm) [1, 11]: 87.61 nm
Num Ave Size (nm) [1, 13]: 68.39 nm
PDI [1, 13]: 0.033
Z-Ave Size (nm) [1, 13]: 85.09 nm
Encapsulation (%) [2, 11]: 98%
Encapsulation (%) [2, 13]: 97%
pKa [3]: 6.36
Compound: CCCCC/C=C\C/C=C\CCCCCCCC(=O)OCC(COC(=O)CCCCCCC/C=C\C/C=C\CCCCC)OC(=O)CCC(CCCCCCCCCCCC)OC(=O)NCCN(C)CC (centres unmarked) [Compound 7, 2-((4-(((2-(ethyl(methyl)amino)ethyl)carbamoyl)oxy)hexadecanoyl)oxy)propane-1,3-diyl (9Z,9′Z,12Z,12′Z)-bis(octadeca-9,12-dienoate)]
Serum TTR (mouse TTR; Table 3, guide G282, CD-1 female mice, 0.1 mpk i.v., Exp. 1, 8, 9, 10, 0.1 mg/kg): 270 µg/mL and 271 µg/mL
Serum TTR % TSS (mouse TTR; Table 3, guide G282, CD-1 female mice, 0.1 mpk i.v., percentage of vehicle control (TSS), 0.1 mg/kg): 31% TSS and 33% TSS
Serum TTR % TSS (mouse TTR; [10]): 58% TSS
Serum TTR % TSS (mouse TTR; [4]): 10% TSS

Num Ave Size (nm) [1, 14]: 54.84 nm
PDI [1, 14]: 0.04
Z-Ave Size (nm) [1, 14]: 68.63 nm
Encapsulation (%) [2, 14]: 99%
pKa [3]: 6.35
Compound: CCCCC/C=C\C/C=C\CCCCCCCC(=O)OCC(COC(=O)CCCCCCC/C=C\C/C=C\CCCCC)OC(=O)CCC(CCCCCCCCCCCC)OC(=O)OCCCN(C)C (centres unmarked) [Compound 1, 2-((4-(((3-(dimethylamino)propoxy)carbonyl)oxy)hexadecanoyl)oxy)propane-1,3-diyl (9Z,9′Z,12Z,12′Z)-bis(octadeca-9,12-dienoate)]
Serum TTR (mouse TTR; [8]): 671 µg/mL
Serum TTR % TSS (mouse TTR; [9]): 76% TSS
Serum TTR % TSS (mouse TTR; [4]): 48.49 % TSS

Num Ave Size (nm) [1, 19]: 62.64 nm
PDI [1, 19]: 0.009
Z-Ave Size (nm) [1, 19]: 76.02 nm
Encapsulation (%) [2, 19]: 99%
pKa [3]: 6.25
Compound: CCCCC/C=C\C/C=C\CCCCCCCC(=O)OCC(COC(=O)CCCCCCC/C=C\C/C=C\CCCCC)OC(=O)CCC(CCCCCCCCCCCC)OC(=O)OCCCN1CCCC1 (centres unmarked) [Compound 5, 2-((4-(((3-(pyrrolidin-1-yl)propoxy)carbonyl)oxy)hexadecanoyl)oxy)propane-1,3-diyl (9Z,9′Z,12Z,12′Z)-bis(octadeca-9,12-dienoate)]
Serum TTR (mouse TTR; [15]): 549 µg/mL
Serum TTR % TSS (mouse TTR; [16]): 67% TSS
Serum TTR (mouse TTR; [17]): 233 µg/mL
Serum TTR % TSS (mouse TTR; [18]): 28% TSS

Num Ave Size (nm) [1, 5]: 88.38 nm
PDI [1, 5]: 0.02
Z-Ave Size (nm) [1, 5]: 106.80 nm
Number Average [nm] [1, 7]: 91.47 nm
PDI [1, 7]: 0.018
Z-Ave Size (nm) [1, 7]: 111.4 nm
Encapsulation (%) [2, 5]: 98%
% E ([2]; N/P 6.0): 94%
pKa [3]: 7.01
Compound: CCCCC/C=C\C/C=C\CCCCCCCC(=O)OCC(COC(=O)CCCCCCC/C=C\C/C=C\CCCCC)OC(=O)CCC(CCCCC)OC(=O)NCCN1CCCC1 (centres unmarked) [Compound 72, 2-((4-(((2-(pyrrolidin-1l-yl)ethyl)carbamoyl)oxy)nonanoyl)oxy)propane-1,3-diyl (9Z,9′Z,12Z,12′Z)-bis(octadeca-9,12-dienoate)]
Serum TTR % TSS (mouse TTR; [10]): 66.92 % TSS
Serum TTR % TSS (mouse TTR; [4]): 26.43 % TSS

Num Ave Size (nm) [1, 14]: 69.84 nm
PDI [1, 14]: 0.05
Z-Ave Size (nm) [1, 14]: 87.92 nm
Num Ave Size (nm) [1, 20]: 73.13 nm
PDI [1, 20]: 0.014
Z-Ave Size (nm) [1, 20]: 88.36 nm
Num Ave Size (nm) [1, 5]: 63.19 nm
PDI [1, 5]: 0.03
Z-Ave Size (nm) [1, 5]: 77.07 nm
Num Ave Size (nm) [1, 11]: 66.26 nm
PDI [1, 11]: 0.026
Z-Ave Size (nm) [1, 11]: 81.83 nm
Num Ave Size (nm) [1, 21]: 65 nm
PDI [1, 21]: 0.03
Z-Ave Size (nm) [1, 21]: 83.00 nm
Num Ave Size (nm) [1, 22]: 74 nm
PDI [1, 22]: 0.02
Z-Ave Size (nm) [1, 22]: 90.00 nm
Num Ave Size (nm) [1, 23]: 63.19 nm
PDI [1, 23]: 0.026
Z-Ave Size (nm) [1, 23]: 77.07 nm
Num Ave Size (nm) [1, 12]: 69.01 nm
PDI [1, 12]: 0.026
Z-Ave Size (nm) [1, 12]: 84.47 nm
Num Ave Size (nm) [1, 24]: 70 nm
PDI [1, 24]: 0.04
Z-Ave Size (nm) [1, 24]: 87 nm
Num Ave Size (nm) [1, 6]: 75 nm
PDI [1, 6]: 0.04
Z-Ave Size (nm) [1, 6]: 90 nm
Num Ave Size (nm) [1, 13]: 69.51 nm
PDI [1, 13]: 0.007
Z-Ave Size (nm) [1, 13]: 84.93 nm
Num Ave Size (nm) [1, 19]: 69.75 nm
PDI [1, 19]: 0.011
Z-Ave Size (nm) [1, 19]: 83.63 nm
Num Avg Size (nm) [1, 25]: 69.85 nm
PDI [1, 25]: 0.028
Z-Avg Size (nm) [1, 25]: 87.84 nm
Number Average [nm] [1, 7]: 74.82 nm
PDI [1, 7]: 0.015
Z-Ave Size (nm) [1, 7]: 93.14 nm
Encapsulation (%) [2, 14]: 98%
Encapsulation (%) [2, 20]: 98%
Encapsulation (%) [2, 5]: 93%
Encapsulation (%) [2, 11]: 98%
Encapsulation (%) [2, 21]: 98%
Encapsulation (%) [2, 22]: 99%
Encapsulation (%) [2, 23]: 93%
Encapsulation (%) [2, 12]: 98%
Encapsulation (%) [2, 24]: 98%
Encapsulation (%) [2, 6]: 98%
Encapsulation (%) [2, 13]: 98%
Encapsulation (%) [2, 19]: 99%
Encapsulation (%) [2, 25]: 97%
% E ([2]; N/P 6.0): 98%
Compound: CCCCC/C=C\C/C=C\CCCCCCCC(=O)OCC(COC(=O)CCC(OCCCCCCCC)OCCCCCCCC)COC(=O)OCCCN(CC)CC (centres unmarked) [Compound 49, 3-((4,4-bis(octyloxy)butanoyl)oxy)-2-((((3-(diethylamino)propoxy)carbonyl)oxy)methyl)propyl (9Z,12Z)-octadeca-9,12-dienoate, reference compound]
Serum TTR (mouse TTR; [15]): 254 µg/mL
Serum TTR % TSS (mouse TTR; [16]): 31% TSS
Serum TTR (mouse TTR; [17]): 40 µg/mL
Serum TTR % TSS (mouse TTR; [18]): 5% TSS
